Results from PubChem BioAssay AID192 (DTP/NCI, 2004).
“And” between values parts separate entries of the source, which are not always exact repeats. Equal entries are not always repeated. Inconclusive results and toxic doses are left out. Square brackets hold non-standard residues; d marks the D form. Peptide text beside a SMILES is read from it. * marks the point of attachment. ξ: configuration not given here. ξAsp(βξ-Me) = CC(C(=O)O)C(N)C(=O)O; X4 = CC(N*)C1NC(=O)C2CCCCN2C1=O; ξAbu(3ξ-NH2) = CC(N)C(N)C(=O)O; X3 = CCC(C)CCC/C=C/CC(=O)*

Test system: BDF1 mice, B16 melanoma ip, median survival T/C
Assay: NCI In Vivo Anticancer Drug Screen. Data for tumor model B16 Melanoma (intraperitoneal) in B6D2F1 (BDF1) mice
Conditions: endpoint: median survival time, higher = longer survival
Outline: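 The ratio T/C compares compound-treated mice with vehicle-treated controls, using survival or tumor size as the endpoint in a transplantable tumor model.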

[1] = dose: 12.5 mg/kg/injection, schedule: Q01DX009 (ip), vehicle: saline
[2] = dose: 25.0 mg/kg/injection, schedule: Q01DX009 (ip), vehicle: saline
[3] = dose: 50.0 mg/kg/injection, schedule: Q01DX009 (ip), vehicle: saline
[4] = dose: 100.0 mg/kg/injection, schedule: Q01DX009 (ip), vehicle: saline
[5] = dose: 25.0 mg/kg/injection, schedule: Q01DX009 (ip), vehicle: saline with Tween-80
[6] = dose: 50.0 mg/kg/injection, schedule: Q01DX009 (ip), vehicle: saline with Tween-80
[7] = dose: 12.5 mg/kg/injection, schedule: Q01DX009 (ip), vehicle: saline with Tween-80
[8] = dose: 100.0 mg/kg/injection, schedule: Q01DX009 (ip), vehicle: Klucel (hydroxypropylcellulose) (HPC)
[9] = dose: 200.0 mg/kg/injection, schedule: Q01DX009 (ip), vehicle: Klucel (hydroxypropylcellulose) (HPC)
[10] = dose: 400.0 mg/kg/injection, schedule: Q01DX009 (ip), vehicle: Klucel (hydroxypropylcellulose) (HPC)
[11] = dose: 50.0 mg/kg/injection, schedule: Q01DX009 (ip), vehicle: Klucel (hydroxypropylcellulose) (HPC)
[12] = dose: 25.0 mg/kg/injection, schedule: Q01DX009 (ip), vehicle: Klucel (hydroxypropylcellulose) (HPC)
[13] = dose: 200.0 mg/kg/injection, schedule: Q01DX009 (ip), vehicle: saline

COc1cccc2c1C(=O)c1c(O)c3c(c(O)c1C2=O)C[C@@](O)(/C(C)=N/NC(=O)c1ccc(S(N)(=O)=O)cc1)C[C@@H]3OC1CC(N)C(O)C(C)O1 (some centres not stated)
T/C (dose: 3.13 mg/kg/injection, schedule: Q01DX009 (ip), vehicle: water): 190 % of control
T/C (dose: 6.25 mg/kg/injection, schedule: Q01DX009 (ip), vehicle: water): 258 % of control
T/C (dose: 12.5 mg/kg/injection, schedule: Q01DX009 (ip), vehicle: water): 259 % of control

CCCC(=O)O
T/C [1]: 106 % of control
T/C [2]: 101 % of control
T/C [3]: 92 % of control
T/C [4]: 106 % of control

CCOC(=O)Nc1nccs1
T/C [5]: 97 % of control
T/C [6]: 89 % of control
T/C (dose: 100.0 mg/kg/injection, schedule: Q01DX009 (ip), vehicle: saline with Tween-80): 89 % of control
T/C (dose: 200.0 mg/kg/injection, schedule: Q01DX009 (ip), vehicle: saline with Tween-80): 89 % of control

CCc1nc2cc(C)c(C)cc2[nH]1
T/C [7]: 106 % of control
T/C [5]: 104 % of control
T/C [6]: 104 % of control

CN(C)CCC1CCCCN1 (configuration not stated)
T/C [2]: 112 % of control
T/C [3]: 100 % of control
T/C [4]: 100 % of control

CCC(C)CCC/C=C/CC(=O)NC(CC(=O)O)C(=O)NC(C(=O)NC(CC(=O)O)C(=O)NCC(=O)NC(CC(=O)O)C(=O)NCC(=O)NC(C(=O)NC(C(=O)N1CCCC1C(=O)NC(C)C1NC(=O)C2CCCCN2C1=O)C(C)C)C(C)N)C(C)C(=O)O (stereo not drawn) (X3-D[ξAsp(βξ-Me)]DGDG[ξAbu(3ξ-NH2)]VP-X4; configuration not given here)
T/C (dose: 100.0 mg/kg/injection, schedule: Q01DX009 (ip), vehicle: saline + alcohol): 90 % of control
T/C (dose: 200.0 mg/kg/injection, schedule: Q01DX009 (ip), vehicle: saline + alcohol): 93 % of control

COc1ccc(-c2c(CC(=O)O)c3cc(OC)ccc3n2Cc2ccc(Cl)cc2)cc1
T/C [8]: 95 % of control
T/C (dose: 100.0 mg/kg/injection, schedule: Q04DX003 (ip), vehicle: saline with Tween-80): 100 % of control
T/C [9]: 94 % of control
T/C (dose: 200.0 mg/kg/injection, schedule: Q04DX003 (ip), vehicle: saline with Tween-80): 95 % of control
T/C [10]: 95 % of control
T/C (dose: 400.0 mg/kg/injection, schedule: Q04DX003 (ip), vehicle: saline with Tween-80): 95 % of control

Cc1ccc(-c2cc(-c3ccccc3)no2)cc1
T/C (dose: 100.0 mg/kg/injection, schedule: Q04DX003 (ip), vehicle: Klucel (hydroxypropylcellulose) (HPC)): 94 % of control
T/C (dose: 200.0 mg/kg/injection, schedule: Q04DX003 (ip), vehicle: Klucel (hydroxypropylcellulose) (HPC)): 100 % of control
T/C (dose: 400.0 mg/kg/injection, schedule: Q04DX003 (ip), vehicle: Klucel (hydroxypropylcellulose) (HPC)): 94 % of control

O=C(CBr)c1ccc(-c2ccccc2)cc1
T/C (dose: 12.5 mg/kg/injection, schedule: Q04DX003 (ip), vehicle: Klucel (hydroxypropylcellulose) (HPC)): 88 % of control
T/C (dose: 25.0 mg/kg/injection, schedule: Q04DX003 (ip), vehicle: Klucel (hydroxypropylcellulose) (HPC)): 102 % of control
T/C [11]: 93 % of control
T/C (dose: 50.0 mg/kg/injection, schedule: Q04DX003 (ip), vehicle: Klucel (hydroxypropylcellulose) (HPC)): 94 % of control

CC1(C)OC(CI)C(COS(C)(=O)=O)O1 (configuration not stated)
T/C [7]: 97 % of control
T/C [5]: 97 % of control
T/C [6]: 96 % of control and 100 % of control

CCOC(=O)C[Si](C)(C)C
T/C [12]: 102 % of control
T/C [11]: 108 % of control
T/C [8]: 86 % of control
T/C [9]: 107 % of control
T/C [10]: 97 % of control

CN1CCC2(CC1)SSC1(CCN(C)CC1)S2
T/C [4]: 122 % of control
T/C (dose: 100.0 mg/kg/injection, schedule: Q04DX003 (ip), vehicle: saline): 91 % of control
T/C [13]: 116 % of control
T/C (dose: 200.0 mg/kg/injection, schedule: Q04DX003 (ip), vehicle: saline): 91 % of control

CCOc1ccccc1NC(=O)c1cc2ccccc2cc1O
T/C [4]: 115 % of control
T/C [13]: 118 % of control
T/C (dose: 400.0 mg/kg/injection, schedule: Q01DX009 (ip), vehicle: saline): 121 % of control

Cc1cc2nc3ccc(N)cc3oc-2cc1=[N+](C)C
T/C (dose: 6.25 mg/kg/injection, schedule: Q01DX009 (ip), vehicle: Klucel (hydroxypropylcellulose) (HPC)): 105 % of control
T/C (dose: 6.25 mg/kg/injection, schedule: Q01DX009 (ip), vehicle: saline): 123 % of control
T/C (dose: 12.5 mg/kg/injection, schedule: Q01DX009 (ip), vehicle: Klucel (hydroxypropylcellulose) (HPC)): 110 % of control
T/C [1]: 119 % of control
T/C [12]: 117 % of control
